SMILES strings stand for the structures. The source made the active and inactive calls.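 How the source made its calls: active means IC50 of 25 µM or lower, counted as toxic to worms; inactive means the rest.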 Some results are limits rather than exact numbers.

This data set deals with C. elegans VP596, manual health composite score, 20-22 h. Briefly: C. elegans worm health toxicity scoring, SAR follow-up, cytotoxicity control for SKN-1 inhibitor project, whole organism, strain VP596, composite health score (AID 652161).
With `Cc1ccc(N=C/C(C(=O)C(F)(F)F)=C(\O)c2ccco2)cc1Cl`, the IC50 was 27.2 µM (inactive).
The value for `O=C(/C=C/c1cccs1)c1ccc(Br)cc1` was 11.6 µM; that for `c1ccc2oc(SCc3nc4ccccc4s3)nc2c1` was 13.9 µM.
The value for `O=C(Nc1nc(-c2ccccc2)cs1)c1cccs1` was 15 µM.
Next, `O=C(Nc1nc(-c2ccc(Cl)s2)cs1)c1cccs1`: > 64 µM (inactive).
Take `Fc1ccc(COc2ccc(-c3nnco3)cc2)cc1`: the IC50 was 34.9 µM (inactive).
Next, `O=C(/C=C/c1ccccc1)Nc1ccc(CN2CCOCC2)cc1`: > 64 µM (inactive); `Clc1ccccc1-c1nnc(-c2ccccc2Cl)o1`: 20.9 µM.
Next, `Brc1ccc(CSc2nnc(-c3ccco3)o2)cc1`: 8.76 µM; `Fc1ccc(-c2csc(-c3ccncc3)n2)cc1`: 10.6 µM.
The value for `CCc1ccc(-c2nc(-c3ccncc3)no2)cc1` was 10.6 µM.
Take `Cc1nc2ccccc2cc1OCc1ccc(F)cc1`: the IC50 is 8.59 µM.
The value for `O=C(/C=C/Nc1ccc(F)cc1F)c1ccco1` was 24.1 µM; that for `c1ccc(Nc2nc(-c3cccs3)cs2)nc1` was 14.9 µM.
For `Cc1cc(OCc2cccc(Cl)c2)c(C)cc1CN1CCOCC1`, the 50% inhibitory concentration (IC50) was 21 µM.
Next, `Clc1ccccc1-c1nc(-c2ccncc2)no1`: 15.3 µM.
As to `O=C(Nc1ccc(CN2CCOCC2)cc1)c1cc2ccccc2o1`, the IC50 was 35.3 µM (inactive).
For `Cc1ccc(-c2noc(-c3cccs3)n2)cc1`, the IC50 is 10.6 µM.
The value for `Cc1oc(-c2ccc(-c3ccccc3)cc2)nc1CN(C)C1CCOC1` (stereo not drawn) was > 64 µM (inactive).
The value for `Cc1ccc(CSc2nnc(-c3ccco3)o2)cc1` was 19.1 µM; that for `CC(C)c1ccc(C(=O)Nc2ccc(CN3CCOCC3)cc2)cc1` was 14.7 µM; that for `CCOc1cc(CNCCSc2nnnn2C)cc(Br)c1OCc1ccc(F)cc1` was 16 µM.
The value for `Clc1ccc(-c2nnc(-c3ccco3)o2)cc1` was 16.9 µM; that for `CCOc1cc(CNC2CCCC2)cc(Cl)c1OCc1ccccc1` was > 64 µM (inactive); that for `Cc1ccc2nc(-c3ccc(NC(=S)NC4CC(C)(C)NC(C)(C)C4)cc3)sc2c1` was 62 µM (inactive).
As for `Cc1ccc(Nc2nc(-c3cccs3)cs2)nc1`, the IC50 is 27.3 µM (inactive).
The value for `O=C(/C=C/Nc1ccc(F)c(F)c1)c1cccs1` was > 64 µM (inactive); that for `Brc1ccc(-c2nc(-c3ccccc3)no2)o1` was 11.9 µM; that for `O=C(Nc1nc(-c2ccc(Cl)s2)cs1)c1ccco1` was 16.1 µM.
The value for `O=C(/C=C/Nc1ccc(F)c(Cl)c1)c1ccco1` was 18.8 µM.
Next, `O=C(/C=C/Nc1ccc(Br)cc1F)c1ccco1`: 14.8 µM; `Fc1ccc(-c2csc(Nc3ccccn3)n2)cc1`: 7.02 µM.
As for `c1ccc(-c2csc(-c3ccncc3)n2)cc1`, the IC50 was 23.9 µM.
Take `COc1ccc(C(=O)Nc2nc(-c3cccs3)cs2)cc1`: the IC50 was > 64 µM (inactive).
The value for `COc1cc(CNC(C)(C)CO)cc(Br)c1OCc1ccc(Cl)cc1` was 56.3 µM (inactive); that for `Cc1ccccc1-c1noc(-c2cccs2)n1` was 7.83 µM; that for `CCOC(=O)Nc1nc(-c2ccc(F)cc2F)cs1` was 22.9 µM.
Next, `CCOc1ccc(-c2nc(-c3cccnc3)no2)cc1`: 8.88 µM; `c1ccc2sc(SCc3ccc(-c4nnco4)cc3)nc2c1`: 14.5 µM; `c1ccc(-c2csc(Nc3ccccn3)n2)cc1`: 6.56 µM.
Next, `CCOC(=O)c1c(-c2ccc(-c3ccccc3)cc2)csc1NC(=O)CNCCN(C)C`: > 64 µM (inactive); `O=C(/C=C/c1ccc(Br)cc1)c1ccc(NC2=NCCCS2)cc1`: 20.1 µM; `O=C(Nc1nccs1)c1ccc2ccccc2n1`: 16 µM.
For the compound `c1ccc(SCc2cc(-c3ccccc3)no2)cc1`, the 50% inhibitory concentration (IC50) was 11.5 µM.
Regarding `O=C(/C=C/Nc1ccccc1F)c1cccs1`, the IC50 is 35.2 µM (inactive).
For the compound `Brc1ccc(CSc2nnc(-c3cccnc3)o2)cc1`, the IC50 was 25.2 µM (inactive).
The value for `O=C(Nc1nc(-c2ccc(Cl)s2)cs1)c1ccccc1` was > 64 µM (inactive).
Next, `CSc1cccc(NC(=O)c2cccc3cccnc23)c1`: 47 µM (inactive); `COc1cc(CNC(C)c2ccccc2)cc(Br)c1OCc1ccc(F)cc1` (stereo not drawn): > 64 µM (inactive); `COc1cc(CNC2CCCC2)cc(Cl)c1OCc1ccc(F)cc1`: 46.9 µM (inactive).
Next, `O=C(Nc1nc2c(ccc3ccccc32)s1)c1ccco1`: 20.3 µM.
In the case of `Brc1ccc(-c2nnc(-c3ccco3)o2)cc1`, the IC50 was 12.9 µM.
Next, `O=C(/C=C/Nc1ccc(F)cc1F)c1cccs1`: 21.4 µM.
Next, `c1ccc(-c2nc(-c3ccncc3)no2)cc1`: > 64 µM (inactive); `Fc1ccc(COc2ccc(-c3nnco3)cc2)c(Cl)c1`: 8.11 µM.
In the case of `CCOc1cc(CNC2CCCC2)cc(Cl)c1OCc1ccc(F)cc1`, the IC50 was > 64 µM (inactive).
For the compound `Clc1ccc(Nc2nc(-c3cccs3)cs2)nc1`, the IC50 is 12.4 µM.
Next, `Clc1ccc(-c2nnc(-c3ccccc3)o2)c(Cl)c1`: 27.9 µM (inactive).

Usually IC50 stands for the concentration that gives 50% inhibition.

For the origin of these results see PubChem BioAssay AID652161 (Sanford-Burnham Center for Chemical Genomics, 2013).
